Among the data in patent publication US10899747B2, “Biaryl piperidine amide compounds and methods of use thereof” (Athenex, Inc., priority 2017, dated 2021) are IC50 values, retold here.

Each structure is given as a SMILES string. Some results are limits rather than exact numbers.

For this assay, the system named is IL-2. In words: PHA-IL2 (cell activation and cytokine analysis). It is filed as cell-based. The conditions noted are these: 50% inhibition concentration class. The procedure, abridged:
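Cells were seeded in 96-well plates at 1.0-2.0×10^6 cells/ml in 150 ul of RPMI containing 0.5% fetal calf serum. Test compounds, at up to ≤20 uM, were preincubated with the cells for 30 minutes, then phytohemagglutinin (PHA) was added and cultures were stimulated for 24-48 hours at 37 degrees C./5% CO2. Supernatant IL-2 was then quantified by standard ELISA.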
One may read the IC50 as the point on the concentration scale where inhibition reaches its midpoint. `O=C(COc1ccccc1-c1ccc(F)cc1O)N1CCC(CCc2ccc(OCCN3CCOCC3)cc2)CC1` [Compound 349] came in with an IC50 of 1000 to 10000 nM.

`COc1cccc(CCC2CCN(C(=O)COc3cccnc3-c3ccc(F)cc3O)CC2)c1` [Compound 350]: the IC50 is less than 1000 nM.

Compound `O=C(COc1ccc(C(F)(F)F)cc1-c1ccc(F)cc1O)N1CCC(CCc2ccccc2)CC1` [Compound 351] gave an IC50 of less than 1000 nM.

For `COc1cccc(CCC2CCN(C(=O)COc3ccc(C#N)cc3-c3ccc(F)cc3O)CC2)c1` [Compound 352], the IC50 was less than 1000 nM.

Compound `COc1cccc(CCC2CCN(C(=O)COc3ccc(C(F)(F)F)cc3-c3ccc(F)cc3O)CC2)c1` [Compound 353] gave an IC50 of less than 1000 nM.

`N#Cc1ccc(OCC(=O)N2CCC(CCc3cccc(OCCN4CCOCC4)c3)CC2)c(-c2ccc(F)cc2O)c1` [Compound 354] displayed an IC50 of 1000 to 10000 nM.

Regarding `O=C(COc1ccccc1-c1ccc(F)cc1O)N1CCC(CCc2cccc(OCCN3CCOCC3)c2)CC1` [Compound 355], the half-maximal inhibitory concentration (IC50) lay within 1000 to 10000 nM.

`O=C(COc1ccc(C(F)(F)F)cc1-c1ccc(F)cc1O)N1CCC(CCc2cccc(OCCN3CCOCC3)c2)CC1` [Compound 356] returned a concentration for half-maximal inhibition (IC50) of 1000 to 10000 nM.

For `N#Cc1ccc(OCC(=O)N2CCC(CCc3ccc(OCCN4CCOCC4)cc3)CC2)c(-c2ccc(F)cc2O)c1` [Compound 357], the IC50 was less than 1000 nM.

The compound `O=C(COc1cccnc1-c1ccc(F)cc1O)N1CCC(CCc2ccc(OCCN3CCOCC3)cc2)CC1` [Compound 358] gave an IC50 of 1000 to 10000 nM.

`O=C(COc1ccccc1-c1ccc(F)cc1O)N1CCC(CCc2cccc(OCCN3CCCC3)c2)CC1` [Compound 359] had an IC50 of 1000 to 10000 nM.

In turn, `O=C(COc1cccnc1-c1ccc(F)cc1O)N1CCC(CCc2cccc(OCCN3CCCCC3)c2)CC1` [Compound 360] yielded an IC50 of 1000 to 10000 nM.

Turning to `COc1cccc(CCC2CCN(C(=O)COc3cccnc3-c3ccc(C#N)cc3)CC2)c1` [Compound 361], the IC50 is 1000 to 10000 nM.

For the compound `COc1cccc(CCC2CCN(C(=O)COc3cccnc3-c3ccc4[nH]ncc4c3)CC2)c1` [Compound 362], the half-maximal inhibitory concentration (IC50) lay in the range of 1000 to 10000 nM.

Regarding `COc1cccc(CCC2CCN(C(=O)COc3cccnc3-c3ccc(C(F)(F)F)cc3O)CC2)c1` [Compound 363], the IC50 lay within 1000 to 10000 nM.

Compound `COc1cccc(CCC2CCN(C(=O)COc3ccccc3-c3ccc(C(F)(F)F)cc3O)CC2)c1` [Compound 364] showed an IC50 of 1000 to 10000 nM.

Take `O=C(COc1ccccc1-c1ccc(C(F)(F)F)cc1O)N1CCC(CCc2ccc3c(c2)OCO3)CC1` [Compound 365]: the IC50 lay within 1000 to 10000 nM.

Turning to `N#Cc1ccc(-c2cc(C(=O)NCc3ccccc3)ccc2OCC(=O)N2CCC(CCc3ccccc3)CC2)cc1` [Compound 366], the IC50 is less than 1000 nM.

`CN1CC(NC(=O)c2ccc(OCC(=O)N3CCC(CCc4ccccc4)CC3)c(-c3ccc(C#N)cc3)c2)C1` [Compound 367] registered an IC50 of 1000 to 10000 nM.

`N#Cc1ccc(-c2cc(C(=O)NC3CCOCC3)ccc2OCC(=O)N2CCC(CCc3ccccc3)CC2)cc1` [Compound 368] gave an IC50 of 1000 to 10000 nM.

For the compound `N#Cc1ccc(-c2cc(C(=O)Nc3ccccc3)ccc2OCC(=O)N2CCC(CCc3ccccc3)CC2)cc1` [Compound 369], the IC50 lay within 1000 to 10000 nM.

As to `O=C(COc1ccccc1-c1ccc2[nH]cnc2c1)N1CCC(CCc2ccccc2)CC1` [Compound 370], the IC50 lay within 1000 to 10000 nM.

Regarding `COc1cccc(CCC2CCN(C(=O)COc3ccccc3-c3ccc4[nH]cnc4c3)CC2)c1` [Compound 371], the IC50 is less than 1000 nM.

`N#Cc1ccc(OCC(=O)N2CCC(CCc3ccccc3)CC2)c(-c2ccc3[nH]cnc3c2)c1` [Compound 372] yielded an IC50 of 1000 to 10000 nM.

For `COc1cccc(CCC2CCN(C(=O)COc3cccnc3-c3ccc4c(cnn4C)c3)CC2)c1` [Compound 373], the IC50 lay within 1000 to 10000 nM.

On to `Cn1ncc2cc(-c3ncccc3OCC(=O)N3CCC(CCc4cccc(OCCN5CCOCC5)c4)CC3)ccc21` [Compound 374], for which the IC50 is 10000 to 50000 nM.

Compound `Cn1ncc2cc(-c3ncccc3OCC(=O)N3CCC(CCc4ccc5c(c4)OCO5)CC3)ccc21` [Compound 375] returned an IC50 of 1000 to 10000 nM.

For `O=C(COc1cccnc1-c1ccc2[nH]ccc2c1)N1CCC(CCc2ccccc2)CC1` [Compound 376], the IC50 is 1000 to 10000 nM.

Compound `COc1cccc(CCC2CCN(C(=O)COc3cccnc3-c3ccc4[nH]ccc4c3)CC2)c1` [Compound 377] showed an IC50 of 1000 to 10000 nM.

The compound `COc1cccc(CCC2CCN(C(=O)COc3cccnc3-c3ccc4c(ccn4C)c3)CC2)c1` [Compound 378] had an IC50 of 1000 to 10000 nM.

In the case of `Cn1ccc2cc(-c3ncccc3OCC(=O)N3CCC(CCc4ccc5c(c4)OCO5)CC3)ccc21` [Compound 379], the IC50 lay in the range of 1000 to 10000 nM.

Turning to `Cn1ccc2cc(-c3ncccc3OCC(=O)N3CCC(CCc4cccc(OCCN5CCOCC5)c4)CC3)ccc21` [Compound 380], the 50% inhibitory concentration (IC50) is 1000 to 10000 nM.

For `COc1cc(CCC2CCN(C(=O)COc3cccnc3-c3ccc(F)cc3O)CC2)ccc1OCCN1CCOCC1` [Compound 381], the IC50 was in the range of 10000 to 50000 nM.

As to `O=C(COc1ccccc1-c1ccc2[nH]cnc2c1)N1CCC(CCc2ccc3c(c2)OCO3)CC1` [Compound 382], the IC50 lay in the range of 1000 to 10000 nM.

`O=C(COc1ccccc1-c1ccc2[nH]cnc2c1)N1CCC(CCc2ccc(O)cc2)CC1` [Compound 383]: the IC50 lay in the range of 1000 to 10000 nM.

Consider `Cn1ccc2cc(-c3ccccc3OCC(=O)N3CCC(CCc4ccc5c(c4)OCO5)CC3)ccc21` [Compound 384], for which the IC50 lay in the range of 1000 to 10000 nM.

`COc1cccc(CCC2CCN(C(=O)COc3ccc(S(N)(=O)=O)cc3-c3ccc(C#N)cc3)CC2)c1` [Compound 385] gave a half-maximal inhibitory concentration (IC50) of 1000 to 10000 nM.

For `COc1cccc(CCC2CCN(C(=O)COc3ccc(S(N)(=O)=O)cc3-c3ccc(F)cc3O)CC2)c1` [Compound 386], the IC50 was in the range of 1000 to 10000 nM.

For the compound `COc1cccc(CCC2CCN(C(=O)COc3ccccc3-c3ccc4[nH]c(C)nc4c3)CC2)c1` [Compound 387], the IC50 fell in the range of 1000 to 10000 nM.

With `Cc1nc2cc(-c3ccccc3OCC(=O)N3CCC(CCc4ccc5c(c4)OCO5)CC3)ccc2[nH]1` [Compound 388], the IC50 was less than 1000 nM.

Regarding `COc1cccc(CCC2CCN(C(=O)COc3ccc(S(=O)(=O)NC(C)C)cc3-c3ccc(F)cc3O)CC2)c1` [Compound 389], the IC50 is 1000 to 10000 nM.

In the case of `CC(C)NS(=O)(=O)c1ccc(OCC(=O)N2CCC(CCc3ccc4c(c3)OCO4)CC2)c(-c2ccc(F)cc2O)c1` [Compound 390], the IC50 is 1000 to 10000 nM.

In turn, `COc1ccc(CCC2CCN(C(=O)COc3ccccc3-c3ccc(F)cc3O)CC2)cc1OCCN1CCOCC1` [Compound 391] displayed an IC50 of 1000 to 10000 nM.

In the case of `O=C(COc1ccccc1-c1ccc(F)cc1O)N1CCC(CCc2ccncc2)CC1` [Compound 392], the IC50 lay within 1000 to 10000 nM.

In turn, `O=C(COc1ccccc1-c1ccc(F)cc1O)N1CCC(CCc2cccnc2)CC1` [Compound 393] had a concentration for half-maximal inhibition (IC50) of 1000 to 10000 nM.

The compound `O=C(COc1cccnc1-c1ccc2[nH]ncc2c1)N1CCC(CCc2ccncc2)CC1` [Compound 396] returned an IC50 of 1000 to 10000 nM.

For the compound `O=C(COc1cccnc1-c1ccc(F)cc1O)N1CCC(CCc2ccncc2)CC1` [Compound 397], the IC50 was in the range of 1000 to 10000 nM.

`CC(C)Oc1cccc(CCC2CCN(C(=O)COc3ccccc3-c3ccc4[nH]cnc4c3)CC2)c1` [Compound 398]: the half-inhibitory concentration (IC50) was less than 1000 nM.

With `CC(C)Oc1cccc(CCC2CCN(C(=O)COc3ccc(C#N)cc3-c3ccc(F)cc3O)CC2)c1` [Compound 399], the IC50 is less than 1000 nM.

Compound `CC(C)Oc1cccc(CCC2CCN(C(=O)COc3ccccc3-c3ccc(F)cc3O)CC2)c1` [Compound 400] came in with an IC50 of less than 1000 nM.

The compound `N#Cc1ccc(OCC(=O)N2CCC(CCc3cccc4ccccc34)CC2)c(-c2ccc(F)cc2O)c1` [Compound 401] showed an IC50 of less than 1000 nM.

`O=C(COc1ccccc1-c1ccc2[nH]cnc2c1)N1CCC(CCc2cccc3ccccc23)CC1` [Compound 402] showed a 50% inhibitory concentration (IC50) of less than 1000 nM.

`N#Cc1ccc(-c2ccccc2C2CC2C(=O)N2CCC(CCc3ccccc3)CC2)cc1` (stereo not drawn) [Compound 404] showed an IC50 of less than 1000 nM.

`O=C(C1CC1c1ccccc1-c1ccc(F)cc1O)N1CCC(CCc2ccccc2)CC1` (stereo not drawn) [Compound 405] registered an IC50 of less than 1000 nM.

As to `N#Cc1ccc(-c2ccccc2OCC(=O)N2CCC(CCc3cccc(OC4CC4)c3)CC2)cc1` [Compound 406], the IC50 is less than 1000 nM.

`N#Cc1ccc(OCC(=O)N2CCC(CCc3cccc(OC4CC4)c3)CC2)c(-c2ccc(F)cc2O)c1` [Compound 407]: the IC50 is less than 1000 nM.

In turn, `CC(C)Oc1cccc(CCC2CCN(C(=O)COc3cccnc3-c3ccc(F)cc3O)CC2)c1` [Compound 408] showed an IC50 of less than 1000 nM.

In the case of `N#Cc1ccc(OCC(=O)N2CCC(CCc3cccc(OC4CCCC4)c3)CC2)c(-c2ccc(F)cc2O)c1` [Compound 409], the IC50 was less than 1000 nM.

Compound `O=C(COc1cccnc1-c1ccc(F)cc1O)N1CCC(CCc2cccc(OC3CCCC3)c2)CC1` [Compound 410] returned an IC50 of less than 1000 nM.

For the compound `CC(C)Oc1cccc(CCC2CCN(C(=O)COc3cccnc3-c3ccc(C#N)cc3)CC2)c1` [Compound 411], the IC50 is less than 1000 nM.

Turning to `C#CCOc1ccc(CCC2CCN(C(=O)COc3ccccc3-c3ccc(C(=O)c4ccccc4)cc3)CC2)cc1` [Compound 412], the IC50 lay within 1000 to 10000 nM.

`CC(C)Oc1cccc(CCC2CCN(C(=O)COc3ccc(C#N)cc3-c3ccccc3O)CC2)c1` [Compound 414] returned an IC50 of less than 1000 nM.

`O=C(c1ccccc1)c1ccc(-c2ccccc2OCC(=O)N2CCC(CCc3cccc(O)c3)CC2)cc1` [Compound 415]: the IC50 is less than 1000 nM.

The compound `C#CCOc1cccc(CCC2CCN(C(=O)COc3ccccc3-c3ccc(C(=O)c4ccccc4)cc3)CC2)c1` [Compound 416] had an IC50 of 1000 to 10000 nM.

In turn, `N#Cc1ccc(OCC(=O)N2CCC(CCc3cccc(O)c3)CC2)c(-c2ccc(C(=O)c3ccccc3)cc2)c1` [Compound 417] registered a 50% inhibitory concentration (IC50) of less than 1000 nM.

In the case of `C#CCOc1cccc(CCC2CCN(C(=O)COc3ccc(C#N)cc3-c3ccc(C(=O)c4ccccc4)cc3)CC2)c1` [Compound 418], the IC50 was less than 1000 nM.
